The test system of the assay is Acute Liver Injury Induced by Carbon Tetrachloride. The assay is described as follows: Protective effect on acute liver injury induced by carbon tetrachloride. It counts as in vivo, mice (ddY mice). Conditions: for Liver Damage Index: 50mg/kg orally in olive oil 6 hours before carbon tetrachloride (0.05ml/kg orally), visual score 0: normal, 2: slightly, 4: distinctly, 6: remarkably injured, n=5, CCl4 alone 6.0; for inhibition in vivo at 50 mg/kg: Mus musculus, po, 50mg/kg orally 6 hours before carbon tetrachloride (0.05ml/kg orally), CCl4 alone 0, Normal 100. The method, then: A test compound was dissolved or suspended in olive oil and administered orally at a dose of 50mg/kg to mice (ddY mice, ? , 23 ± 2g, n=5). After 6 hours, carbon tetrachloride (0.05ml/kg) was administered orally. 24 Hours after the administration of carbon tetrachloride, BSP (sodium sulfobromophthalene; 75mg/kg) was administered intravenously. Thirty minutes later, the cardiac blood was collected, and GPT (glutamic-pyruvic transaminase) activity and the retention rate of BSP in the plasma were measured. Further, the liver injury immediately after the collection of the blood was visually observed and evaluated by the following score for liver damage index. 0: normal 2: Slightly injured 4: distinctly injured 6: remarkably injured

[1] abbreviates: 24.5 h, retention rate of BSP in plasma 30 minutes after BSP 75mg/kg i.v., read-out: % Prophylaxis BSP.
[2] abbreviates: plasma GPT about 24.5 hours after CCl4, read-out: % Prophylaxis p-GPT.

24 compounds from patent EP0210284B1, “1,3-Dithiol-2-ylidene derivatives” (priority 1985, dated 1987) can be followed below.

Read-outs that look alike come from different tables or passages of the source.

For `CC(C)(C)C(=O)C(C(=O)c1ccccc1)=C1SC=CS1` [Compound 9, 2-(1,3-dithiol-2-ylidene)-4,4-dimethyl-1-phenyl-1,3-pentanedione], the “Liver Damage Index” value is on record as 0.4. For the same compound, the inhibition in vivo at 50 mg/kg under setting [1] was found to be 103%. The inhibition in vivo at 50 mg/kg under setting [2] came out at 100%.

As for `CC=CC(=O)C(C(=O)c1ccccc1)=C1SC=CS1` [Compound 11, 2-(1,3-dithiol-2-ylidene)-1-phenyl-4-hexene-1,3-dione], the “Liver Damage Index” value stood at 0.8. Further, the inhibition in vivo at 50 mg/kg under setting [1] was found to be 105%. For the same compound, the inhibition in vivo at 50 mg/kg under setting [2] is 100%.

As to `CC(=O)C(C(=O)c1ccc(Cl)cc1)=C1SC=CS1` [Compound 14, 2-(1,3-dithiol-2-ylidene)-1-(4-chlorophenyl)-1,3-butanedione], the “Liver Damage Index” value came to 0.4. For the same compound, the inhibition in vivo at 50 mg/kg under setting [1] was determined as 113%. In addition, the inhibition in vivo at 50 mg/kg under setting [2] was 100%.

As for `CC(=O)C(C(=O)c1ccc(Br)cc1)=C1SC=CS1` [Compound 15, 2-(1,3-dithiol-2-ylidene)-1-(4-bromophenyl)-1,3-butanedione], the “Liver Damage Index” value is given as 3.2. For the same compound, under setting [1], the inhibition in vivo at 50 mg/kg was determined as 105%. The inhibition in vivo at 50 mg/kg under setting [2] amounted to 100%.

For `COc1ccccc1C(=O)C(C(C)=O)=C1SC=CS1` [Compound 16, 2-(1,3-dithiol-2-ylidene)-1-(2-methoxyphenyl)-1,3-butanedione], the “Liver Damage Index” value stood at 0.6. Under setting [1], the inhibition in vivo at 50 mg/kg was found to be 95%. The inhibition in vivo at 50 mg/kg under setting [2] was found to be 99%.

As to `COc1ccc(C(=O)C(C(C)=O)=C2SC=CS2)cc1OC` [Compound 18, 2-(1,3-dithiol-2-ylidene)-1-(3,4-dimethoxyphenyl)-1,3-butanedione], the “Liver Damage Index” value was determined as 0.4. Further, the inhibition in vivo at 50 mg/kg under setting [1] amounted to 100%. In addition, the inhibition in vivo at 50 mg/kg under setting [2] was determined as 54%.

In the case of `CC(=O)C(C(=O)c1ccc([N+](=O)[O-])cc1)=C1SC=CS1` [Compound 19, 2-(1,3-dithiol-2-ylidene)-1-(4-nitrophenyl)-1,3-butanedione], the “Liver Damage Index” value was 1.6. Also, the inhibition in vivo at 50 mg/kg under setting [1] was determined as 100%. Besides, the inhibition in vivo at 50 mg/kg under setting [2] is 100%.

`CC(=O)C(C(=O)c1cccnc1)=C1SC=CS1` [Compound 21, 2-(1,3-dithiol-2-ylidene)-1-(3-pyridyl)-1,3-butanedione]: the “Liver Damage Index” value is reported as 0.8. Also, under setting [1], the inhibition in vivo at 50 mg/kg was 100%. In addition, under setting [2], the inhibition in vivo at 50 mg/kg worked out at 98%.

As to `CC(=O)C(C(=O)c1ccncc1)=C1SC=CS1` [Compound 22, 2-(1,3-dithiol-2-ylidene)-1-(4-pyridyl)-1,3-butanedione], the “Liver Damage Index” value was 0.2. For the same compound, the inhibition in vivo at 50 mg/kg under setting [1] came to 120%. Also, the inhibition in vivo at 50 mg/kg under setting [2] amounted to 100%.

On to `CC(=O)C(C(=O)c1ccco1)=C1SC=CS1` [Compound 23, 2-(1,3-dithiol-2-ylidene)-1-(2-furyl)-1,3-butanedione], for which the “Liver Damage Index” value is reported as 1.0. Moreover, the inhibition in vivo at 50 mg/kg under setting [1] was 110%. Further, the inhibition in vivo at 50 mg/kg under setting [2] is 94%.

`CC(=O)C(C(=O)c1cccs1)=C1SC=CS1` [Compound 24, 2-(1,3-dithiol-2-ylidene)-1-(2-thienyl)-1,3-butanedione]: the “Liver Damage Index” value is on record as 0. Further, under setting [1], the inhibition in vivo at 50 mg/kg stood at 102%. Moreover, the inhibition in vivo at 50 mg/kg under setting [2] turned out to be 100%.

With `CC(=O)C(C(=O)c1ccc[nH]1)=C1SC=CS1` [Compound 25, 2-(1,3-dithiol-2-ylidene)-1-(2-pyrrolyl)-1,3-butanedione], the “Liver Damage Index” value was found to be 2.2. The inhibition in vivo at 50 mg/kg under setting [1] was determined as 88%. Also, under setting [2], the inhibition in vivo at 50 mg/kg is 76%.

As to `CC(=O)C(C(=O)c1cnccn1)=C1SC=CS1` [Compound 26, 2-(1,3-dithiol-2-ylidene)-1-pyrazinyl-1,3-butanedione], the “Liver Damage Index” value stood at 0.4. Further, the inhibition in vivo at 50 mg/kg under setting [1] was 99%. Besides, the inhibition in vivo at 50 mg/kg under setting [2] stood at 96%.

Consider `CC(=O)C(C(=O)c1cc2ccccc2[nH]1)=C1SC=CS1` [Compound 29, 2-(1,3-dithiol-2-ylidene)-1-(2-indolyl)-1,3-butanedione], for which the “Liver Damage Index” value was determined as 0.8. The inhibition in vivo at 50 mg/kg under setting [1] was determined as 104%. Besides, the inhibition in vivo at 50 mg/kg under setting [2] was found to be 100%.

As to `CC(=O)C(C(=O)c1ccc2ccccc2n1)=C1SC=CS1` [Compound 30, 2-(1,3-dithiol-2-ylidene)-1-(2-quinolyl)-1,3-butanedione], the “Liver Damage Index” value worked out at 2.0. The inhibition in vivo at 50 mg/kg under setting [1] amounted to 105%. Also, under setting [2], the inhibition in vivo at 50 mg/kg is 98%.

Turning to `O=C(C(C(=O)C(F)(F)F)=C1SC=CS1)c1ccccc1` [Compound 31, 2-(1,3-dithiol-2-ylidene)-1-phenyl-4,4,4-trifluoro-1,3-butanedione], the “Liver Damage Index” value is on record as 0.4. The inhibition in vivo at 50 mg/kg under setting [1] was found to be 106%. The inhibition in vivo at 50 mg/kg under setting [2] was found to be 100%.

Take `CC(=O)C(C(=O)Cc1ccccc1)=C1SC=CS1` [Compound 32, 3-(1,3-dithiol-2-ylidene)-1-phenyl-2,4-pentanedione]: the “Liver Damage Index” value was 0.4. Further, under setting [1], the inhibition in vivo at 50 mg/kg amounted to 124%. In addition, the inhibition in vivo at 50 mg/kg under setting [2] was determined as 95%.

As to `CC(=O)C(C(=O)C=Cc1ccccc1)=C1SC=CS1` [Compound 33, 4-(1,3-dithiol-2-ylidene)-1-phenyl-1-hexene-3,5-dione], the “Liver Damage Index” value turned out to be 4.2. Also, under setting [1], the inhibition in vivo at 50 mg/kg was determined as 86%. In addition, the inhibition in vivo at 50 mg/kg under setting [2] stood at 77%.

In the case of `O=C(C(C(=O)c1ccccc1)=C1SC=CS1)c1ccccc1` [Compound 34, 2-(1,3-dithiol-2-ylidene)-1,3-diphenyl-1,3-propanedione], the “Liver Damage Index” value is given as 0.8. Also, under setting [1], the inhibition in vivo at 50 mg/kg is 112%. Besides, the inhibition in vivo at 50 mg/kg under setting [2] stood at 100%.

Consider `O=C(C(C(=O)c1ccc(Cl)cc1)=C1SC=CS1)c1ccc(Cl)cc1` [Compound 35, 2-(1,3-dithiol-2-ylidene)-1,3-di(4-chlorophenyl)-1,3-propanedione], for which the “Liver Damage Index” value is 0. Also, the inhibition in vivo at 50 mg/kg under setting [1] stood at 114%. In addition, the inhibition in vivo at 50 mg/kg under setting [2] came to 100%.

`COc1ccc(C(=O)C(C(=O)c2ccc(OC)cc2)=C2SC=CS2)cc1` [Compound 36, 2-(1,3-dithiol-2-ylidene)-1,3-di(4-methoxyphenyl)-1,3-propanedione]: the “Liver Damage Index” value came to 0. For the same compound, under setting [1], the inhibition in vivo at 50 mg/kg was 119%. Besides, the inhibition in vivo at 50 mg/kg under setting [2] was 100%.

As to `O=C(Cc1ccccc1)C(C(=O)c1ccccc1)=C1SC=CS1` [Compound 37, 2-(1,3-dithiol-2-ylidene)-1,4-diphenyl-1,3-butanedione], the “Liver Damage Index” value is listed as 1.8. For the same compound, the inhibition in vivo at 50 mg/kg under setting [1] turned out to be 99%. Further, the inhibition in vivo at 50 mg/kg under setting [2] amounted to 100%.

Turning to `O=C(C=Cc1ccccc1)C(C(=O)c1ccccc1)=C1SC=CS1` [Compound 38, 4-(1,3-dithiol-2-ylidene)-1,5-diphenyl-1-pentene-3,5-dione], the “Liver Damage Index” value is 3.2. Moreover, the inhibition in vivo at 50 mg/kg under setting [1] was determined as 96%. In addition, the inhibition in vivo at 50 mg/kg under setting [2] was determined as 66%.

Regarding `CC(=O)C(C(=O)c1ccc(N)cc1)=C1SC=CS1` [Compound 46, 2-(1,3-dithiol-2-ylidene)-1-(4-aminophenyl)-1,3-butanedione], the “Liver Damage Index” value turned out to be 0.4. Moreover, the inhibition in vivo at 50 mg/kg under setting [1] was found to be 106%. Besides, the inhibition in vivo at 50 mg/kg under setting [2] was found to be 100%.
